Experimental findings from patent publication US20100168225A1, “Small-Molecule Hepatitis C Virus (HCV) NS3/4A Serine Protease Inhibitors” (priority 2007, published 2010) are described below.

In the assay the target is SARS 3CL^PRO (Severe acute respiratory syndrome coronavirus, UniProt P0C6X7). Put plainly: biochemical.

SMILES strings stand for the structures.

In turn, `O=c1oc2c(O)c(O)ccc2cc1O` [Compound C21, 3,7,8-trihydroxycoumarin] displayed a half-inhibitory concentration (IC50) (ID50) of 100 µM.
As to `O=c1oc2cc(O)c(O)cc2cc1O` [Compound C11, 3-hydroxyesculetin], the IC50 by setting is: (ID50) 97 µM; (ID50 (μM) (by kinetic assay) SARS 3CL^PRO) 96.6 µM.
For `O=c1ccc2ccc(O)c(O)c2o1` [Compound C10, Daphnetin], under “ID50”, the IC50 is 168 µM.
On to `CC(=O)Nc1cc2ccc(OC(C)=O)c(OC(C)=O)c2oc1=O` [Compound C22, 3-aminoacyl-7,8-diacetoxycoumarin], for which it took 184 µM to reach half-maximal inhibition (ID50) (IC50).
On the same count and under the same terms, the value for `CC(=O)Nc1cc2cc(OC(C)=O)c(OC(C)=O)cc2oc1=O` [Compound C12, 3-aminoacyl-6,7-diacetoxycoumarin] was 183 µM.
